Test results: patent publication US20230241029A1, “METHODS OF REDUCING POST-SURGICAL METASTASIS” (priority 2018, published 2023)

Columns and labels:
[1] = system: B16F10 melanoma cells; conditions: wild type mice with PVA sponges; HDC 1,500 μg/mouse i.p. thrice weekly for 2 weeks; foci counted 3 weeks after B16F10 injection; p<0.0001, n=10
Description: (§1) To mimic the wounding inflammation associated with surgery, sterile polyvinyl alcohol (PVA) sponges (1 cm^2 with a thickness of 2 mm) were implanted subcutaneously to wild type C57BL/6 and Nox2−/− mice (mouse strain B6.129S6-Cybbtm1Din, obtained from the Jackson Laboratory) aiming to induce tissue inflammation.
(§2) Mice received intraperitoneal injections of the NOX2-inhibitor HDC (1,500 μg/mouse) thrice weekly for 2 weeks starting two days before implantation of sponges.

[2] = system: intracellular reactive oxygen species in CD11b+LyC6+ inflammatory monocytes; conditions: sponge-bearing wild type mice; HDC 1,500 μg/mouse i.p. thrice weekly; DCFDA, one week after implantation
Description: The values were normalized against those of unwounded control mice on each collection day.
as §1, §2
One week after implantation of sponges, before injection of melanoma cells, peripheral blood was drawn from vena saphena of wild type and Nox2−/− mice. Blood cells were stained for CD11b and Ly6C using fluorochrome-conjugated antibodies and with DCFDA to detect content of intracellular reactive oxygen species. The content of CD11b+LyC6+inflammatory monocytes in blood and their levels of intracellular radicals was determined using flow cytometry.

Cl.Cl.NCCc1c[nH]cn1 [HDC, histamine dihydrochloride]
formation of metastases (metastatic foci in lungs) during surgical/wounding-induced inflammation [1]: significantly reduced | ROS levels in blood inflammatory monocytes [2]: trend towards reduced ROS levels
